Laboratory results taken from patent publication US20250026721A1, “COMPOUNDS AND METHODS FOR MODULATING RAS-PI3K” (Vividion Therapeutics, Inc., priority 2023, published 2025).

These compounds were tested against T1, PIK3CA_C242 (Homo sapiens, UniProt P42336) (assay: Proteomic TE50 (IA-DTB / TMT mass spectrometry) in Jurkat cell lysate). Conditions: 1 hour at rt, 7-point dose response.
T1 construct: endogenous in cells; host or cells: Jurkat cell lysate
T1 sequence (P42336 whole entry): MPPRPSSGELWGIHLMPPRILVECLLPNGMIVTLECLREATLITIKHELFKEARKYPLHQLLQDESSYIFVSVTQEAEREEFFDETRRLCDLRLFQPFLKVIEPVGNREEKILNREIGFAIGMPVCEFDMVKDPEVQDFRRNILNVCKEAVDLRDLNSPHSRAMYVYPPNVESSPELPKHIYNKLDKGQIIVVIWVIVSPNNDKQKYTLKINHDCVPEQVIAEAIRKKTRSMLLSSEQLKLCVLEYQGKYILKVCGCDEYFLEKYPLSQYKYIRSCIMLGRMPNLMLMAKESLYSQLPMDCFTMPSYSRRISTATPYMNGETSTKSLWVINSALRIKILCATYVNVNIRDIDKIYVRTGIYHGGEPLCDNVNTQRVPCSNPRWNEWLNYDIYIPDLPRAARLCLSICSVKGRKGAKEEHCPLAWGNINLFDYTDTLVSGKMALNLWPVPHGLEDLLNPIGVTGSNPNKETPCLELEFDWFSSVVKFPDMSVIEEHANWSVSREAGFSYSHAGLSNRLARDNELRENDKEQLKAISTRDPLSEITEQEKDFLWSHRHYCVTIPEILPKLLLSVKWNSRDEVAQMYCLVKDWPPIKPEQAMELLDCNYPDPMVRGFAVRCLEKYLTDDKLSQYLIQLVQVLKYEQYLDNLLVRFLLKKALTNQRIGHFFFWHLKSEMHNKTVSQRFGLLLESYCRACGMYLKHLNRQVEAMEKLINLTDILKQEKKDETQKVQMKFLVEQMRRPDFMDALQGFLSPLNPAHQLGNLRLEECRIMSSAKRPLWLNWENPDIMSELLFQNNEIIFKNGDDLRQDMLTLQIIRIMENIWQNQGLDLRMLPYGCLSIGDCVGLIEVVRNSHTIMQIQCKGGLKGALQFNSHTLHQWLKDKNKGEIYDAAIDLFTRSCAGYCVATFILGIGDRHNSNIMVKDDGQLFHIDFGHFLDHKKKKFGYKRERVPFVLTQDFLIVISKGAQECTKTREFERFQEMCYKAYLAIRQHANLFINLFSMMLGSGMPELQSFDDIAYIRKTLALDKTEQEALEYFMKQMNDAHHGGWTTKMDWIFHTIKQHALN
T1 sequence (P27986 whole entry partner): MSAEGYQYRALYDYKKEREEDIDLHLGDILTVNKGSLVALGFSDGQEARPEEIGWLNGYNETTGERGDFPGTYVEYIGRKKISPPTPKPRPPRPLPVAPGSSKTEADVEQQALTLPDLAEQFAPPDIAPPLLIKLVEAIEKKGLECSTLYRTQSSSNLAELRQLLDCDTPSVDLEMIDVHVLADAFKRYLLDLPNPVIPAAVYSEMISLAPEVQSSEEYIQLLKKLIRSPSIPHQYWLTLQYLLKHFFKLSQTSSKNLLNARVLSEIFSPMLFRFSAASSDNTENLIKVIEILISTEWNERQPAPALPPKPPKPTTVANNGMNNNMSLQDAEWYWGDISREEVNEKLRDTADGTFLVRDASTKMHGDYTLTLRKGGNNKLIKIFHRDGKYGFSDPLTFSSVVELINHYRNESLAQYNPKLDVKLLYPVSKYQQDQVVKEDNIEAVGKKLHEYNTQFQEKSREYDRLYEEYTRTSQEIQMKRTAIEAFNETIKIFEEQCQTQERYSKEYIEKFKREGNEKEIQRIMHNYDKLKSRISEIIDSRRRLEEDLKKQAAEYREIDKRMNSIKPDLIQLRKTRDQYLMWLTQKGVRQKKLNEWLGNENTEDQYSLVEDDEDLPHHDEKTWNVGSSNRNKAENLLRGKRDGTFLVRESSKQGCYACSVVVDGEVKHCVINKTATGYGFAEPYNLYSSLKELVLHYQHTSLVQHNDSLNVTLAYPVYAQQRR
Assay type: binding
Description: Example 4. Proteomic TE50 In vitro TE50 values for PIK3CA_C242 were obtained by treating 500 μg of cell lysate generated from Jurkat cells with DMSO or compound for 1 hour at rt followed by the addition of 200 μM desthiobiotin polyethyleneoxide iodoacetamide (IA-DTB) in DMSO for one hour at rt. Compounds were serially diluted 1:5 for a total of 7 points in order to generate dose response curves. Samples were then precipitated by the addition of 8× ice cold acetone and incubated at -80° C. for two hours. Protein was then pelleted by centrifugation (4,200 RPM, 45 min, 4° C.). The pelleted material was resuspended in 9M urea, 50 mM ammonium bicarbonate and proteins were reduced and alkylated by the addition of DTT and iodoacetamide (10 and 30 mM, respectively). Following reduction and alkylation, samples were exchanged into 2M urea (Zeba spin desalting plates, Thermo Fisher) and digested with Trypsin. IA-DTB labeled peptides were isolated with streptavidin agarose resin. Enriched peptides were eluted by the addition of 50% acetonitrile (ACN) 0.1% formic acid (FA) and dried in a SpeedVac vacuum concentrator. […] Reactions were quenched by the addition of 6.5 μL of 5% hydroxylamine. Samples were then combined and desalted on a Evolute express ABN plate (Biotage, 600-0010-PX01). Targeted TMT measurements were collected using an Orbitrap Lumos Tribrid Mass Spectrometer (Thermo Scientific) coupled to an UltiMate 3000 Series Rapid Separation LC system and autosampler (Thermo Scientific Dionex). Peptides were eluted onto a custom C18 capillary analytical column (75-μm inner diameter fused silica, packed with Acclaim PepMap C18 resin; Thermo Scientific) using an Acclaim PepMap 100 (Thermo 164535) loading column, and separated at a flow rate of […]. Data were acquired using a specific MS3-based TMT method targeting the peptide containing […], +2 charge state) where MS2 peptide fragmentation is triggered upon detection of the peptide precursor ion. Subsequent MS3 analysis was then performed using pre-selected peptide fragment ions that were isolated for fragmentation using synchronous precursor selection. RAW files were converted to MZXML format and searched with the SEQUEST algorithm using the […] software package. TMT quantitation was performed with a filter requiring at least ten summed signal-to-noise (S/N) for control channels. TE50 values were calculated from 7-point dose response curves created using the reporter ion S/N for each channel.
In the case of `C[C@@H](/C=C\S(C)(=O)=O)NC(=O)C1(F)CCN(S(=O)(=O)c2ccc(Cl)cc2-c2cccc(OCc3ccccc3)c2)CC1` [Compound 268, (S,Z)-1-((3′-(benzyloxy)-5-chloro-[1,1′-biphenyl]-2-yl)sulfonyl)-4-fluoro-N-(4-(methylsulfonyl)but-3-en-2-yl)piperidine-4-carboxamide], the IC50 is reported as 356 nM. `C[C@H](/C=C\S(C)(=O)=O)NC(=O)C1(F)CCN(S(=O)(=O)c2ccc(N3CCN(C(=O)OC(C)(C)C)CC3)cc2-c2ccccc2Cl)CC1` [Compound 118, tert-butyl (R,Z)-4-(2′-chloro-6-((4-fluoro-4-((4-(methylsulfonyl)but-3-en-2-yl)carbamoyl)piperidin-1-yl)sulfonyl)-[1,1′-biphenyl]-3-yl)piperazine-1-carboxylate] gave an IC50 of 430 nM. In the case of `COc1ccc(S(=O)(=O)N2CCC(F)(C(=O)NC/C=C/S(C)(=O)=O)CC2)c(-c2ccccc2C)c1` [Compound 44, (E)-4-fluoro-1-((5-methoxy-2′-methyl-[1,1′-biphenyl]-2-yl)sulfonyl)-N-(3-(methylsulfonyl)allyl)piperidine-4-carboxamide], the IC50 is reported as 313 nM. For `CN(C)c1ccc(S(=O)(=O)N2CCC(F)(C(=O)NC/C=C/S(C)(=O)=O)CC2)c(-c2ccccc2Cl)c1` [Compound 95, (E)-1-((2′-chloro-5-(dimethylamino)-[1,1′-biphenyl]-2-yl)sulfonyl)-4-fluoro-N-(3-(methylsulfonyl)allyl)piperidine-4-carboxamide], the IC50 was 100 nM. Work on `CC#Cc1ccc(S(=O)(=O)N2CCC(F)(C(=O)N[C@H](C)/C=C\S(C)(=O)=O)CC2)c(-c2ccccc2Cl)c1` [Compound 131, (R,Z)-1-((2′-chloro-5-(prop-1-yn-1-yl)-[1,1′-biphenyl]-2-yl)sulfonyl)-4-fluoro-N-(4-(methylsulfonyl)but-3-en-2-yl)piperidine-4-carboxamide] yielded an IC50 of 209 nM. For `CC[C@H](/C=C\S(C)(=O)=O)NC(=O)C1(F)CCN(S(=O)(=O)c2ccc(N(C)C)cc2-c2ccccc2Cl)CC1` [Compound 85, (R,Z)-1-((2′-chloro-5-(dimethylamino)-[1,1′-biphenyl]-2-yl)sulfonyl)-4-fluoro-N-(1-(methylsulfonyl)pent-1-en-3-yl)piperidine-4-carboxamide], the IC50 was 930 nM. `COc1cc(-c2ccccc2Cl)c(S(=O)(=O)N2CCC(F)(C(=O)NC/C=C\C#N)CC2)cn1` [Compound 194, (Z)-1-((4-(2-chlorophenyl)-6-methoxypyridin-3-yl)sulfonyl)-N-(3-cyanoallyl)-4-fluoropiperidine-4-carboxamide] showed an IC50 of 270 nM. Compound `C=Cc1ccc(S(=O)(=O)N2CCC(F)(C(=O)N[C@H](C)/C=C\S(C)(=O)=O)CC2)c(-c2ccccc2C)c1` [Compound 108, (R,Z)-4-fluoro-1-((2′-methyl-5-vinyl-[1,1′-biphenyl]-2-yl)sulfonyl)-N-(4-(methylsulfonyl)but-3-en-2-yl)piperidine-4-carboxamide] has an IC50 of 120 nM. In the case of `COc1cccc(-c2cc(OC)ccc2S(=O)(=O)N2CCC(F)(C(=O)NC/C=C/S(C)(=O)=O)CC2)c1` [Compound 39, (E)-1-((3′,5-dimethoxy-[1,1′-biphenyl]-2-yl)sulfonyl)-4-fluoro-N-(3-(methylsulfonyl)allyl)piperidine-4-carboxamide], the IC50 is reported as 716 nM. For `COc1cc(-c2ccccc2C)c(S(=O)(=O)N2CCC(F)(C(=O)NC/C=C/S(C)(=O)=O)CC2)cn1` [Compound 189, (E)-4-fluoro-1-((6-methoxy-4-(o-tolyl)pyridin-3-yl)sulfonyl)-N-(3-(methylsulfonyl)allyl)piperidine-4-carboxamide], the IC50 was 263 nM. For `COc1cc(-c2ccccc2Cl)c(S(=O)(=O)N2CCC(F)(C(=O)NC/C=C/S(C)(=O)=O)CC2)cn1` [Compound 188, (E)-1-((4-(2-chlorophenyl)-6-methoxypyridin-3-yl)sulfonyl)-4-fluoro-N-(3-(methylsulfonyl)allyl)piperidine-4-carboxamide], the IC50 was 189 nM. Work on `CS(=O)(=O)/C=C/CNC(=O)C1(F)CCN(S(=O)(=O)c2ccc(Cl)cc2-c2ccccc2Cl)CC1` [Compound 40, (E)-1-((2′,5-dichloro-[1,1′-biphenyl]-2-yl)sulfonyl)-4-fluoro-N-(3-(methylsulfonyl)allyl)piperidine-4-carboxamide] yielded an IC50 of 210 nM. In the case of `COc1cccc(-c2cc(Br)ccc2S(=O)(=O)N2CCC(F)(C(=O)NC/C=C/S(C)(=O)=O)CC2)c1` [Compound 63, (E)-1-((5-bromo-3′-methoxy-[1,1′-biphenyl]-2-yl)sulfonyl)-4-fluoro-N-(3-(methylsulfonyl)allyl)piperidine-4-carboxamide], the IC50 is reported as 360 nM. Work on `COc1ccc(S(=O)(=O)N2CCC(F)(C(=O)N[C@@H](C)/C=C\S(C)(=O)=O)CC2)c(-c2ccccc2C)c1` [Compound 12, (S,Z)-4-fluoro-1-((5-methoxy-2′-methyl-[1,1′-biphenyl]-2-yl)sulfonyl)-N-(4-(methylsulfonyl)but-3-en-2-yl)piperidine-4-carboxamide] yielded an IC50 of 66 nM. `COc1cc(-c2ccccc2)c(S(=O)(=O)N2CCC(F)(C(=O)NC/C=C/S(C)(=O)=O)CC2)cn1` [Compound 191, (E)-4-fluoro-1-((6-methoxy-4-phenylpyridin-3-yl)sulfonyl)-N-(3-(methylsulfonyl)allyl)piperidine-4-carboxamide] gave an IC50 of 950 nM. `CS(=O)(=O)/C=C/CNC(=O)C1(F)CCN(S(=O)(=O)c2ccc(Cl)cc2-c2cccc(Cl)c2)CC1` [Compound 45, (E)-1-((3′,5-dichloro-[1,1′-biphenyl]-2-yl)sulfonyl)-4-fluoro-N-(3-(methylsulfonyl)allyl)piperidine-4-carboxamide] was tested, and the IC50 was 420 nM. `N#C/C=C/CNC(=O)C1(F)CCN(S(=O)(=O)c2cnc(Br)cc2-c2ccccc2Cl)CC1` [Compound 278, (E)-1-((6-bromo-4-(2-chlorophenyl)pyridin-3-yl)sulfonyl)-N-(3-cyanoallyl)-4-fluoropiperidine-4-carboxamide] gave an IC50 of 240 nM. With `C[C@H](/C=C\S(C)(=O)=O)NC(=O)C1(F)CCN(C(=O)[C@@H]2CN(C(=O)OC(C)(C)C)C[C@@H]2c2ccccc2Cl)CC1` (racemic) [Compound 158, tert-butyl(3RS,4RS)-3-(2-chlorophenyl)-4-(4-fluoro-4-(((R,Z)-4-(methylsulfonyl)but-3-en-2-yl)carbamoyl)piperidine-1-carbonyl)pyrrolidine-1-carboxylate] the IC50 was 895 nM. Work on `COc1cccc(-c2cc(Cl)ccc2S(=O)(=O)N2CCC(F)(C(=O)NC/C=C/S(C)(=O)=O)CC2)c1` [Compound 36, (E)-1-((5-chloro-3′-methoxy-[1,1′-biphenyl]-2-yl)sulfonyl)-4-fluoro-N-(3-(methylsulfonyl)allyl)piperidine-4-carboxamide] yielded an IC50 of 750 nM. `COc1cccc(-c2cc(Cl)ncc2S(=O)(=O)N2CCC(F)(C(=O)N[C@@H](C)/C=C\S(C)(=O)=O)CC2)c1` [Compound 270, (S,Z)-1-((6-chloro-4-(3-methoxyphenyl)pyridin-3-yl)sulfonyl)-4-fluoro-N-(4-(methylsulfonyl)but-3-en-2-yl)piperidine-4-carboxamide] showed an IC50 of 550 nM. `COc1cccc(-c2cc(Cl)cnc2S(=O)(=O)N2CCC(F)(C(=O)N[C@@H](C)/C=C\S(C)(=O)=O)CC2)c1` [Compound 200, (S,Z)-1-((5-chloro-3-(3-methoxyphenyl)pyridin-2-yl)sulfonyl)-4-fluoro-N-(4-(methylsulfonyl)but-3-en-2-yl)piperidine-4-carboxamide] showed an IC50 of 788 nM. For `CCc1ccc(S(=O)(=O)N2CCC(F)(C(=O)N[C@H](C)/C=C\S(C)(=O)=O)CC2)c(-c2ccccc2C)c1` [Compound 113, (R,Z)-1-((5-ethyl-2′-methyl-[1,1′-biphenyl]-2-yl)sulfonyl)-4-fluoro-N-(4-(methylsulfonyl)but-3-en-2-yl)piperidine-4-carboxamide], the IC50 was 170 nM. For `C[C@@H](/C=C\S(C)(=O)=O)NC(=O)C1(F)CCN(S(=O)(=O)c2ccc(Cl)cc2-c2ccccc2)CC1` [Compound 2, (S,Z)-1-((5-chloro-[1,1′-biphenyl]-2-yl)sulfonyl)-4-fluoro-N-(4-(methylsulfonyl)but-3-en-2-yl)piperidine-4-carboxamide], the IC50 was 88.5 nM. In the case of `COc1ccc(S(=O)(=O)N2CCC(F)(C(=O)NC/C=C/S(C)(=O)=O)CC2)c(-c2ccccc2)c1` [Compound 38, (E)-4-fluoro-1-((5-methoxy-[1,1′-biphenyl]-2-yl)sulfonyl)-N-(3-(methylsulfonyl)allyl)piperidine-4-carboxamide], the IC50 is reported as 644 nM. In the case of `COc1ccc(S(=O)(=O)N2CCC(F)(C(=O)N3CC(/C=C\S(C)(=O)=O)C3)CC2)c(-c2ccccc2Cl)c1` [Compound 230, (Z)-(1-((2′-chloro-5-methoxy-[1,1′-biphenyl]-2-yl)sulfonyl)-4-fluoropiperidin-4-yl)(3-(2-(methylsulfonyl)vinyl)azetidin-1-yl)methanone], the IC50 is reported as 140 nM.
